Earlier results in patent publication US11591601B2, “Methods for identification and modification of lncRNA associated with target genotypes and phenotypes” (The Broad Institute, Inc., priority 2017, dated 2023).

Test system: Factor VII
Settings: hepatocytes in vivo, Factor VII gene silencing model
In the case of “1,2-dilinoleyloxy-keto-N,N-dimethyl-3-aminopropane [DLinKDMA]”, the “gene silencing potency series of LNP siRNA systems containing the lipid” value (“gene silencing potency series” below) is given as “DLinKC2-DMA>DLinKDMA>DLinDMA>>DLinDAP”.
In the case of `CCCCC/C=C\C/C=C\CCCCCCCC(=O)OCC(CN(C)C)OC(=O)CCCCCCC/C=C\C/C=C\CCCCC` (stereo not shown) [DLinDAP, 1,2-dilineoyl-3-dimethylammonium-propane], the “gene silencing potency series” value is given as “DLinKC2-DMA>DLinKDMA>DLinDMA>>DLinDAP”.
For `CCCCC/C=C\C/C=C\CCCCCCCCOCC(CN(C)C)OCCCCCCCC/C=C\C/C=C\CCCCC` (stereo not shown) [DLinDMA, 1,2-dilinoleyloxy-3-N,N-dimethylaminopropane], the “gene silencing potency series” value is given as “DLinKC2-DMA>DLinKDMA>DLinDMA>>DLinDAP”.
For `CCCCC/C=C\C/C=C\CCCCCCCCC1(CCCCCCCC/C=C\C/C=C\CCCCC)OCC(CCN(C)C)O1` (stereo not shown) [DLinKC2-DMA, 1,2-dilinoleyl-4-(2-dimethylaminoethyl)[1,3]-dioxolane], the “gene silencing potency series” value is given as “DLinKC2-DMA>DLinKDMA>DLinDMA>>DLinDAP”.
